Where two headings read alike, the source gives them in different places.
Assays:
healthy subjects = experiment: Phase 1 clinical study in healthy subjects: safety (adverse events, laboratory tests); format: in vivo, human
Protocol: A randomized, double‐blind, third‐party open (i.e., subject and Investigator blind, and Sponsor open), placebo‐controlled study was conducted in healthy subjects to investigate the safety, tolerability, and pharmacokinetics of single and multiple oral doses of PF‐04895162 and to characterize the effect of food on the pharmacokinetics of a single oral dose of PF‐04895162. The study was conducted in accordance with the International Conference on Harmonization guideline for Good Clinical Practice and the principles of the Declaration of Helsinki and was approved by the local independent ethics committee. All subjects gave written informed consent prior to participation in the study. The study was planned as a parallel group, dose escalation study in four cohorts of 10 subjects each, however, the study was terminated prematurely and only Cohort 1 was conducted. After an initial screening visit to confirm eligibility, subjects in Cohort 1 (Figure 1) received single oral doses of 300 mg PF‐04895162 in Period 1 (under fasting conditions) and Period 2 (under fed conditions), and then 300 mg BID PF‐04895162 or placebo for 14 days (under fasting conditions) in Period 3 (the final dose was administered on the morning of Day 14). In Period 2, subjects were given a high‐fat breakfast 25 minutes prior to dosing which had to be consumed within 20 minutes. In all periods, subjects were fasted for at least 8 hours prior to morning dosing (except for breakfast in Period 2), and received lunch and dinner approximately 4 and 9‐10 hours after the morning dose, respectively. In Period 3, subjects were randomized so that eight subjects received PF‐04895162 and two subjects received placebo. The single doses in Periods 1 and 2, and the first dose in Period 3 were each separated by 3 days. A follow‐up visit was conducted 7‐14 days after the final dose. The ClinicalTrials.gov identifier was NCT01691274.
Subjects were healthy males and/or females of nonchildbearing potential, aged 18 to 55 years inclusive with body mass index of 17.5 to 30.5 kg/m^2 and total body weight of >50 kg. Healthy was defined as no clinically relevant abnormalities identified by a detailed medical history, full physical examination, including blood pressure and pulse rate measurement, 12 lead electrocardiograms (ECGs) or clinical laboratory tests. Subjects with evidence or history of clinically significant disease (including drug allergies, but excluding untreated, asymptomatic, seasonal allergies at the time of dosing) and pregnant or nursing females were excluded from this study. Subjects with a history of seizures or conditions with a risk of seizures were also excluded. Other exclusion criteria were generally standard for healthy subject studies and included conditions affecting drug absorption, evidence of drug and/or alcohol abuse, and restrictions on the use of prescription, nonprescription, and over‐the‐counter medications and herbal remedies.
Safety was assessed throughout the study by monitoring adverse events, vital signs (blood pressure, pulse rate, and body temperature), 12‐lead ECGs, and physical examinations. Blood samples for safety laboratory assessments were collected prior to and 24 hours after the first single dose of PF‐04895162 (Day 1 and 2 of Period 1), and in Period 3 on Days 7, 14, and 21 (additional samples were also collected in response to emerging safety data). The Columbia suicide severity rating scale (C‐SSRS) was also conducted at screening or baseline and at the follow‐up visit. Blood samples for pharmacokinetic profiles of PF‐04895162 were collected from predose to 72 hours after each single dose (Periods 1 and 2), and up to 12 and 48 hours after morning dosing on Days 7 and 14, respectively, in Period 3. Additional trough samples were also collected on Days 5, 6, 12, and 13 of Period 3.

[1] = 7-Day Oral Toxicity Study in Monkeys; format: in vivo, cynomolgus monkey; settings: both sexes, cynomolgus monkey, plasma, oral, Day 7, males and females, read-out: total Cmax
Protocol: (§1) Male and female cynomolgus monkeys were administered PF-04895162 twice daily for 7 days at approximately 12 hours apart, with the dose split equally between the 2 daily doses. The highest administered does was 200 mg/kg/day.

cynomolgus monkeys = experiment: 7-Day Oral Toxicity Study in Monkeys; format: in vivo, cynomolgus monkey; settings: for liver weight: males and females
Protocol: as §1

[2] = 300 mg single dose, fasted, N = 10
[3] = 300 mg single dose, fed, N = 10
[4] = Grade 1, >1.25 - 2.5 × ULN, 300 mg BID
[5] = Grade 2, >2.5 - 5 × ULN, 300 mg BID
[6] = Grade 3, >5 - 10 × ULN, 300 mg BID

## O=C(Cc1ccc(F)cc1)Nn1c(C2CC2)nc2cc(F)ccc2c1=O [PF‐04895162, N‐(2‐cyclopropyl‐7‐fluoro‐4‐oxoquinazolin‐3(4H)‐yl)‐2‐(4‐fluorophenyl)ethanamide]
Healthy subjects; 300 mg BID
  ALT, Subject 8, Day 7: 1.5 x the ULN
Healthy subjects; 300 mg BID, 14-day multiple dose
  Height of transaminase elevations: ≤ 5 x the ULN
Healthy subjects; 300 mg BID, Day 14, Grade 3
  ALT elevation, Subject 8: 5.6 x ULN
Healthy subjects; 300 mg BID, Grade 2
  AST increase, Subject 8: 2.7 x ULN
Healthy subjects; 300 mg BID, N = 8
  Number of Subjects discontinued due to AEs, all causalities: 1 (1)
  Number of Subjects discontinued due to AEs, treatment-related: 1 (1)
  Number of Subjects with AEs, all causalities: 8
  Number of Subjects with AEs, treatment-related: 6
  Number of Subjects with Amylase increased, all causalities: 2 (2)
  Number of Subjects with Amylase increased, treatment-related: 2 (2)
  Number of Subjects with Decreased appetite, all causalities: 2
  Number of Subjects with Decreased appetite, treatment-related: 0
  Number of Subjects with Flatulence, all causalities: 2
  Number of Subjects with Flatulence, treatment-related: 1
  Number of Subjects with Transaminases increased, all causalities: 6 (6)
  Number of Subjects with Transaminases increased, treatment-related: 6 (6)
  Number of Subjects with serious AEs: 0
  Number of Subjects with severe AEs: 0
Healthy subjects; 300 mg BID, by Day 14
  ALT response, Subject 6: did not demonstrate any ALT elevations
Healthy subjects; 300 mg BID, starting on Day 14
  GGT elevation, Subject 8: 1.4 x ULN
Healthy subjects; 300 mg BID, subjects who finished Period 3
  Subjects with elevations in ALT on Day 14: six of the remaining seven subjects
Healthy subjects; [2]
  Number of Subjects discontinued due to AEs, all causalities: 0
  Number of Subjects with AEs, all causalities: 1 (1)
  Number of Subjects with AEs, treatment-related: 1 (1)
  Number of Subjects with Amylase increased, all causalities: 0
  Number of Subjects with Decreased appetite, all causalities: 0
  Number of Subjects with Flatulence, all causalities: 0
  Number of Subjects with Transaminases increased, all causalities: 0
  Number of Subjects with serious AEs: 0
  Number of Subjects with severe AEs: 0
Healthy subjects; [3]
  Number of Subjects discontinued due to AEs, all causalities: 0
  Number of Subjects with AEs, all causalities: 2
  Number of Subjects with AEs, treatment-related: 0
  Number of Subjects with Amylase increased, all causalities: 0
  Number of Subjects with Decreased appetite, all causalities: 0
  Number of Subjects with Flatulence, all causalities: 0
  Number of Subjects with Transaminases increased, all causalities: 0
  Number of Subjects with serious AEs: 0
  Number of Subjects with severe AEs: 0
Healthy subjects; 300 mg twice daily for 2 weeks, healthy subjects
  Subjects with transaminase elevations (≥grade 1): six of eight
Healthy subjects; Day 3 of Period 3, 300 mg BID, ULN = 60 IU/L
  Lipase, Subject 7: 434 IU/L
Healthy subjects; Day 3 of Period 3, 300 mg BID, ULN = 136 IU/L
  Amylase, Subject 7: 179 IU/L
Healthy subjects; Grade 1, >1 - 1.5 × ULN, 300 mg BID
  TBIL abnormalities, number of subjects, Grade 1: 2
Healthy subjects; [4]
  ALT abnormalities, number of subjects, Grade 1: 3
  AST abnormalities, number of subjects, Grade 1: 0
Healthy subjects; Grade 2, >1.5 - 2.5 × ULN, 300 mg BID
  TBIL abnormalities, number of subjects, Grade 2: 0
Healthy subjects; [5]
  ALT abnormalities, number of subjects, Grade 2: 2
  AST abnormalities, number of subjects, Grade 2: 1
Healthy subjects; Grade 3, >2.5 - 5 × ULN, 300 mg BID
  TBIL abnormalities, number of subjects, Grade 3: 0
Healthy subjects; [6]
  ALT abnormalities, number of subjects, Grade 3: 1
  AST abnormalities, number of subjects, Grade 3: 0
Healthy subjects; Grade 4, >5 × ULN, 300 mg BID
  TBIL abnormalities, number of subjects, Grade 4: 0
Healthy subjects; Grade 4, >10 × ULN, 300 mg BID
  ALT abnormalities, number of subjects, Grade 4: 0
  AST abnormalities, number of subjects, Grade 4: 0
[1]; 150 mg/kg/day
  Cmax: > 27000 ng/mL
[1]; 200 mg/kg/day
  Cmax: > 24000 ng/mL
Cynomolgus monkeys; 150 and/or 200 mg/kg/day
  Treatment-related clinical findings: decreased activity, ataxia, inappetence, stereotypy (hyper-reactivity, rigidity, jumping), tremors, loss of limb function, rapid eye movement, and eyelid partially/completely closed
Cynomolgus monkeys; females, 150 and 200 mg/kg/day
  thymus gland weight: Decreased thymus gland weight
Cynomolgus monkeys; 150 and 200 mg/kg/day
  liver weight: Increased liver weight
Cynomolgus monkeys; 150 and 200 mg/kg/day, listed as ICA-105665
  liver weight: increased liver weight
Cynomolgus monkeys; males, 150 and 200 mg/kg/day
  brain weight: dose-dependent increases in brain weight
Cynomolgus monkeys; twice daily for 7 days, up to 200 mg/kg/day
  clinical chemistry (liver effects): no clinical chemistry changes suggestive of liver effects

From PMC6370995, “Phase I study of PF‐04895162, a Kv7 channel opener, reveals unexpected hepatotoxicity in healthy subjects, but not rats or monkeys: clinical evidence of disrupted bile acid homeostasis” (Pharmacology Research & Perspectives, 2019)
